Values quoted from earlier work as cited in article PMC2760809 (Nucleic Acids Research, 2009).

Molecular target: many RNA molecules, including HIV TAR RNA and group I introns
Details: read-out: Kd of arginine for RNA molecules

- Kd: > 2 mM
Structure (SMILES): N=C(N)NCCC[C@H](N)C(=O)O [Arginine]
